Laboratory results published in paper PMC4600463 (European journal of medicinal chemistry, 2015).
Entries after “also recorded” stand apart in the source; their conditions may differ.

Biological target: Keap1 (Kelch domain) (Homo sapiens, UniProt Q14145)
Conditions: SAR discussion

Chain of Keap1 (Kelch domain) (Q14145 321-609): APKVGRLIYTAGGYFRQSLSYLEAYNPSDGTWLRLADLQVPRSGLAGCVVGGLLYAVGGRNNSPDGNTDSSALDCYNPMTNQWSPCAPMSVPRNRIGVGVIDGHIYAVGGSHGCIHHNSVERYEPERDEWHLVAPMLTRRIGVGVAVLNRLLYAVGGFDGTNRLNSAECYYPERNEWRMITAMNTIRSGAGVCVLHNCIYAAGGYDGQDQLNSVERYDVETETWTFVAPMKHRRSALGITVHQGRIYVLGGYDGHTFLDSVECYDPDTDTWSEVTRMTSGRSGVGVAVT

Row | Activity in fluorescence anisotropy assay (in words) | SMILES
1 | inactive | O=S(=O)(Nc1ccc(NS(=O)(=O)c2ccccc2)c2ccccc12)c1ccccc1 [Compound 11a, N,N′-(naphthalene-1,4-diyl)dibenzenesulfonamide]
2 | inactive | O=C(O)c1cccc(S(=O)(=O)Nc2ccc(NS(=O)(=O)c3cccc(C(=O)O)c3)c3ccccc23)c1 [Compound 11d, 3,3′-(((4-(hydrosulfonylamino)naphthalen-1-yl)amino)sulfonyl)dibenzoic acid]
3 | inactive | O=S(=O)(Nc1ccc(NS(=O)(=O)c2cccc(C(F)(F)F)c2)c2ccccc12)c1cccc(C(F)(F)F)c1 [Compound 11f, N,N′-(naphthalene-1,4-diyl)bis(3-trifluoromethylbenzenesulfonamide)]
4 | inactive | COc1ccc(S(=O)(=O)Nc2cccc3ccccc23)cc1 [Compound 17, 4-methoxy-N-(naphthalen-1-yl)benzenesulfonamide]
5 | inactive | COc1ccc(S(=O)(=O)N(CC(=O)O)c2cccc3ccccc23)cc1 [Compound 18, N-((4-methoxyphenyl)sulfonyl)-N-(naphthalen-1-yl)glycine]
6 | loss of activity | COc1ccc(S(=O)(=O)Nc2cc(NS(=O)(=O)c3ccc(OC)cc3)c3ccccc3c2)cc1 [Compound 19, N,N′-(naphthalene-1,3-diyl)bis(4-methoxybenzenesulfonamide)]
7 | loss of activity | COc1ccc(S(=O)(=O)Nc2cc3ccccc3cc2NS(=O)(=O)c2ccc(OC)cc2)cc1 [Compound 20, N,N′-(naphthalene-2,3-diyl)bis(4-methoxybenzenesulfonamide)]
8 | loss of activity | COc1ccc(S(=O)(=O)N(CC(=O)O)c2cc(N(CC(=O)O)S(=O)(=O)c3ccc(OC)cc3)c3ccccc3c2)cc1 [Compound 22, 2,2′-(naphthalene-1,3-diylbis(((4-methoxyphenyl)sulfonyl)azanediyl))acetic acid]

Row | SMILES | Activity in fluorescence anisotropy assay (in words)
9 | COc1ccc(S(=O)(=O)N(CC(N)=O)c2cc(N(CC(N)=O)S(=O)(=O)c3ccc(OC)cc3)c3ccccc3c2)cc1 [Compound 21, 2,2′-(naphthalene-1,3-diylbis(((4-methoxyphenyl)sulfonyl)azanediyl))diacetamide] | loss of activity; also recorded: inactive
10 | COc1ccc(S(=O)(=O)Nc2cc3ccccc3cc2N(CC(N)=O)S(=O)(=O)c2ccc(OC)cc2)cc1 [Compound 23, 2-(naphthalene-2,3-diylbis(((4-methoxyphenyl)sulfonyl)azanediyl))acetamide] | loss of activity; also recorded: inactive
